How the values were obtained:
[1] = LD50 in female rats, oral by gavage; conditions: rat, in vivo, 10% w/v suspension in corn oil
Description: 1. The LD50 of the compound of Example 3, both as the free base and the hydrochloride salt was determined in female rats by standard techniques the compound being administered as a 10% w/v suspension in corn oil orally by gavage.

LD50 in mice, oral = conditions: mouse, in vivo, suspension of 0.25% Celacol
Description: 2. The LD50 of the compound of Example 3 was determined in mice by standard techniques, the compound being administered orally in a suspension of 0.25% Celacol.

Nc1ccccc1SCc1ncon1 [Example 3, 3-(2-Aminophenylthiomethyl)-1,2,4-oxadiazole]
LD50 [1]: 79.4 mg/kg
LD50 (LD50 in mice, oral): ~45 mg/kg
